One series deals with H9c2 cells. The series can be described thus: Cytotoxicity on H9c2 cells (CCK-8). It is filed as cell-based, rat. The following applies: Rattus norvegicus, H9c2 cells, n=3, read-out: Inhibition rate. As to the method:
(§1) Rat myocardial H9c2 cells (purchased from China Infrastructure of Cell Line Resources, Institute of Basic Medical Sciences, Chinese Academy of Medical Sciences) were cultured in DMEM supplemented with 10% fetal bovine serum (FBS), Penicillin (100 U/mL), and Streptomycin (100 μg/mL) at 37 °C under a humidified atmosphere of 5% CO2 and 95% air. For OGD/R treatment, H9c2 cells were cultured in glucose-free DMEM under hypoxic conditions (95%N2 + 5%CO2) for 4 h at 37 °C followed by complete medium under normal conditions with air (95%) and CO2 (5%) for 2 h. A control group was maintained under normal culture conditions (with glucose-containing DMEM and 5% CO2) without undergoing OGD/R treatment. CCK8 was used to assess cell viability. After treatment, H9c2 cells were seeded in 96-well plates, with each well supplemented with 10 μL of CCK-8 solution and then incubated for 1 h. Finally, the absorbance at 450 nm was detected by a microplate reader (Model […] 200 PRO, TECAN, Grodig, Austria).
When evaluating the cytotoxicities of the absorbed compounds, the H9c2 cells were seeded in 96-well plates at a density of 1 × 10^4 cells/well; when cells reached 80% confluence, […] Afterward, the protective effects were verified by assessing the cell viability when treating with different concentrations (1, 10, 25, 50, and 100 μM) of the analytes prior to OGD/R treatment.

The nature of series [1]: Concentrations of 24 analytes in QSG treated plasma (Table S5). The note with it: Sprague Dawley, rat, plasma, oral, 7 g/kg.
The subject of a further series is OGD/R-induced H9c2 cells. The series can be described thus: Protective effect on OGD/R-induced H9c2 cells (CCK-8 cell viability). Format: cell-based, rat. The following applies: for H9c2 cell survival after OGD/R (in words): 1, 10, 25, 50 and 100 μM prior to OGD/R, vs model group; for EC50: Rattus norvegicus, protective effect against OGD/R injury, H9c2 cell viability. As for the experimental part:
as §1
When evaluating the cytotoxicities of the absorbed compounds, the H9c2 cells were seeded in 96-well plates at a density of 1 × 10^4 cells/well; when cells reached 80% confluence, they were treated with 25 and 50 μM of the 24 analytes to screen the non-toxic concentration ranges. Afterward, the protective effects were verified by assessing the cell viability when treating with different concentrations (1, 10, 25, 50, and 100 μM) of the analytes prior to OGD/R treatment.

A short description of series [2]: Pharmacokinetic study in rats after oral administration of QSG. The note with it: for AUC / AUC(0-t) / Cmax / MRT / Tmax / half-life / AUC(0-inf): Sprague Dawley, rat, plasma, po, 7 g/kg; for AUC(0-inf): AUC0→∞.
Experimental: Ion source parameters were set as follows: temperatures of drying gas and sheath gas were 300 °C and 300 °C, flow rates of drying gas and sheath gas were 7 L/min and 11 L/min, the nebulizer was set at 35 psig, capillary voltage was 3500 V (−), and nozzle voltage was 2000 V (−). […] Chromatographic separations were conducted on a ZORBAX Eclipse Plus C18 column (3.0 × 50 mm, 1.8 μm, Agilent Technologies, California, USA). The mobile phase was composed of 0.1% aqueous FA (A, (v/v)) and 0.1% formic acid methanol (B), the flow rate was set at 0.5 mL/min, and the column oven was maintained at 40 °C.
Protein precipitation was carried out for each time point for plasma samples, calibration samples, or QC samples by introducing four volumes of acetonitrile containing 400 ng/mL of icariin. Then, 10 μL 10% aqueous ascorbic acid (v/v) was spiked into each sample to prevent the oxidation of phenolic compounds. […] An aliquot (450 μL) of the supernatant was transferred and dried under nitrogen vacuum.
The pharmacokinetic parameters were calculated by DAS software (version 2.0) for a non-compartmental analysis.
The mark [3] stands for this setting: rat plasma, single oral 7 g/kg QSG, n = 6.

What is called inhibition is the drop in the measured response relative to a control, in per cent. For orientation: EC50 means the concentration at which the effect is half-maximal. A lower EC50 goes with higher potency in that assay. Broadly, the AUC is concentration integrated over time. Low readings indicate less exposure, high ones more exposure. For orientation: AUC(0-t) means the area under the concentration-time curve up to a stated or last time point. One may read the Cmax as the peak of the concentration-time curve. For orientation: MRT means the average time that molecules of a dose stay in the body. As a reminder, the Tmax is the time at which the peak concentration occurs. A word on the half-life: it is the time needed for the level to fall by half in the phase considered. Broadly, the AUC(0-inf) is total exposure, with the tail of the curve extrapolated. Read a low AUC(0-inf) as low exposure. In the case of `O=C(/C=C/c1ccc(O)cc1)c1ccc(O)cc1O` [Isoliquiritigenin], in the series with H9c2 cells, the inhibition at 25 µM was -14.9 ± 9.3%, the inhibition at 50 µM was -1.2 ± 7.6% and the inhibition at 100 µM came to 7.2 ± 4.2%. Moreover, in series [1], the concentration at 0.08 h was 0.69 ± 0.227 ng/mL, the concentration at 0.17 h came out at 1.65 ± 0.585 ng/mL, the concentration at 0.5 h was determined as 0.454 ± 0.151 ng/mL and the concentration at 1 h came out at 0.355 ± 0.17 ng/mL. In series [1], this compound had a concentration at 2 h of 0.179 ± 0.041 ng/mL, a concentration at 4 h of 0.231 ± 0.054 ng/mL, a concentration at 8 h of 0.053 ± 0.038 ng/mL and a concentration at 12 h of 0.124 ± 0.092 ng/mL. In the series on OGD/R-induced H9c2 cells, the “H9c2 cell survival after OGD/R (in words)” value was “significantly improve H9c2 cell survival rates” and the EC50 worked out at 10.3 µM. In series [2], this compound returned an AUC of 4.89 ng·h/mL, an AUC(0-t) of 3.17 ± 0.843 ng·h/mL, a Cmax of 1.65 ± 0.585 ng/mL and an MRT of 7.68 ± 2.17 h. Further, in series [2], the time to peak (Tmax) is 0.17 h and the half-life is 12.4 ± 10.5 h. Further, the AUC(0-inf) in series [2] (Table S12, rats, oral QSG) turned out to be 4.89 ng·h/mL. For the same compound, the AUC(0-inf) in series [2] (setting [3]) worked out at 4.89 ± 2.77 ng·h/mL. For the same compound, the “Shape of the plasma concentration–time curve (in words)” value in series [2] (rats, oral QSG) is on record as “Double peaks”.

In the case of `O=c1cc(-c2ccc(O)c(O)c2)oc2cc(O)cc(O)c12` [Luteolin], in the series with H9c2 cells, the inhibition at 25 µM came out at 12.2 ± 4%, the inhibition at 50 µM was 13.1 ± 7.2% and the inhibition at 100 µM was found to be 18.1 ± 4.2%. In addition, in series [1], the concentration at 0.08 h is 5.84 ± 1.29 ng/mL, the concentration at 0.17 h came out at 13.6 ± 4.12 ng/mL, the concentration at 0.5 h is 4.37 ± 1.59 ng/mL and the concentration at 1 h is 2.41 ± 0.697 ng/mL. In series [1], this compound came in with a concentration at 2 h of 0.911 ± 0.249 ng/mL, a concentration at 4 h of 0.251 ± 0.183 ng/mL, a concentration at 8 h of 0.188 ± 0.101 ng/mL and a concentration at 12 h of 0.042 ± 0.044 ng/mL. In the series with OGD/R-induced H9c2 cells, the “H9c2 cell survival after OGD/R (in words)” value is listed as “significantly improve H9c2 cell survival rates” and a half-maximal response (EC50) required 11.3 µM. In series [2], the AUC is 10.9 ng·h/mL, the AUC(0-t) turned out to be 10.3 ± 0.93 ng·h/mL, the Cmax is 12.8 ± 4.12 ng/mL and the MRT was found to be 1.84 ± 0.448 h. For the same compound, in series [2], the Tmax was 0.17 h and the half-life is 2.6 ± 1.22 h. In series [2] (setting [3]), this compound showed an AUC(0-inf) of 10.9 ± 0.867 ng·h/mL.

Values taken from paper PMC12567096, “An Efficacy- and In Vivo Exposure-Oriented Integrated Study to Investigate the Effective Components of Qishen Granule” (Pharmaceuticals, 2025).
